The results in this text go back to patent publication US20250230138A1, “COMPOUNDS HAVING A T-STRUCTURE FORMED BY AT LEAST FOUR CYCLES FOR USE IN THE TREATMENT OF CANCER AND OTHER INDICATIONS” (TheRas, Inc., priority 2022, published 2025).

Test [1] addresses Cys242 in human PIK3CA (157-299) (Homo sapiens (Human), UniProt P42336). In words: Covalent modification assay using MALDI-TOF MS. The format is biochemical. The following applies: 4 h reaction time point. In outline: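 PIK3CA (157-299) at 3.33 μM or 1 μM in 20 mM HEPES, 150 mM NaCl, 2 mM MgCl2, pH 7.3 was incubated with compound (from 10 mM DMSO stocks) in the dark at room temperature for 15 min, 30 min, 2 h or 4 h. Linear-mode MALDI-TOF peak heights gave percent modification.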

The test system of another test is pAKT in BT474 cells. In words: Cell-based pAKT HTRF assay in BT474 cells. The following applies: BT474 cells, 4 hr incubation, read-out: pAKT inhibition IC50 in BT474 cells. Summed up: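 BT474 cells in DMEM/10% FBS were treated the day after seeding with a 9-point, 3-fold compound series from 3 μM (0.25% DMSO) for 4 hr. Lysates were mixed with d2 and Eu cryptate anti-pAKT antibodies and incubated 4-24 h at room temperature. HTRF was read with excitation at 320 nm and emission at 615 nm.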
In general terms: In TR-FRET formats the signal depends on donor and acceptor labels being close together.

Where [2] appears, read: 3.33 μM protein target, 1:7.5 protein to compound ratio (compounds 1-852).
[3] abbreviates: 1 μM protein target, 1:5 protein to compound ratio (compounds 853-1279).

Read-outs that look alike come from different tables or passages of the source.

Cys242 in human PIK3CA (157-299), sequence (P42336 157-299): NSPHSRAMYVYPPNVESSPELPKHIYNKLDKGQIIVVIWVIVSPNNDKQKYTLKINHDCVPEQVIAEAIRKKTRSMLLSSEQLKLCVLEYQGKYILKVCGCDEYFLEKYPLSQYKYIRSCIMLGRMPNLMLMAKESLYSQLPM

As for `C=CC(=O)N1CCn2nc(-c3nc(-c4cnn(C)c4)c4ccsc4c3-c3c(F)cc(F)cc3OCCO)cc2[C@@H]1C` [Compound 640], the “% of modification” value in test [1] (setting [2]) is “A (percent of modification of PIK3CA protein ≥75%)”. Besides, in the test on pAKT in BT474 cells (Compounds 10-999), the IC50 (commonly the midpoint of a concentration-inhibition curve) was under 100 nM.
For `C=CC(=O)N1CCc2nc(-c3nc(-c4ccc5c(c4)CCNC5)c4ccsc4c3-c3ccc(F)cc3OCC3CCNC(=O)C3)sc2C1` (stereo not drawn) [Compound 182], in test [1] (setting [2]), the “% of modification” value is recorded as “A (percent of modification of PIK3CA protein ≥75%)”. Further, the IC50 in the test with pAKT in BT474 cells (Compounds 10-999) was under 100 nM.
The like results for `C=CC(=O)N1CCn2nc(-c3nc(-c4cnn(C)c4)c4ccsc4c3-c3c(F)cc(F)cc3OCCO)cc2C1C` (stereo not drawn) [Compound 532] were, in that order, “A (percent of modification of PIK3CA protein ≥75%)” and under 100 nM.
For `C=CC(=O)N1CCn2nc(-c3nc(-c4ccc(C(=O)NCC(F)F)cc4)c4ccsc4c3-c3c(F)cc(F)cc3OCCOC)cc2C1C` (stereo not drawn) [Compound 1183], in test [1] (setting [3]), the “% of modification” value is “A (percent of modification of PIK3CA protein ≥75%)”. Also, in the test with pAKT in BT474 cells (Compounds 1000-1279), the IC50 is under 100 nM.
As for `C=CC(=O)N1CC[C@H](n2cc(-c3nc(-c4cnn(C)c4)c4ccsc4c3-c3ccc(F)cc3OCC3CCNC(=O)C3)ccc2=O)C1` (stereo partly drawn) [Compound 213], in test [1] (setting [2]), the “% of modification” value is “A (percent of modification of PIK3CA protein ≥75%)”. Moreover, the IC50 with pAKT in BT474 cells (Compounds 10-999) was in the range of 100 to 1000 nM.
Regarding `C=CC(=O)N1CCc2nc(-c3nc(-c4ccc5c(c4)NC(=O)C5)c4ccsc4c3-c3ccc(F)cc3OCCOC)sc2C1` [Compound 163], the “% of modification” value in test [1] (setting [2]) is reported as “A (percent of modification of PIK3CA protein ≥75%)”. In the test on pAKT in BT474 cells (Compounds 10-999), the half-maximal inhibitory concentration (IC50) is under 100 nM.
`C=CC(=O)N1Cc2cc(-c3nc(-c4cnc5c(cnn5C)c4)c4ccsc4c3-c3c(F)cc(F)cc3OCCO)nn2C[C@H]1C` [Compound 885]: the “% of modification” value in test [1] (setting [3]) is listed as “A (percent of modification of PIK3CA protein ≥75%)”. Moreover, the IC50 in the test with pAKT in BT474 cells (Compounds 10-999) is under 100 nM.
With `C=CC(=O)N1CCc2cc(-c3nc(-c4ccc5c(c4)C(=O)NC5)c4ccsc4c3-c3c(F)cc(F)cc3OCCOC)nn2CC1` [Compound 1025], the “% of modification” value in test [1] (setting [3]) is “A (percent of modification of PIK3CA protein ≥75%)”. In the test on pAKT in BT474 cells (Compounds 1000-1279), the IC50 was under 100 nM.
`C=C(F)C(=O)N1CCn2nc(-c3nc(-c4ccc5c(cnn5C)c4)c4ccsc4c3-c3c(F)cc(F)cc3OCCOC)cc2[C@H]1C` [Compound 1226]: in test [1] (setting [3]), the “% of modification” value is reported as “D (percent of modification <25%)”. Also, the IC50 in the test with pAKT in BT474 cells (Compounds 1000-1279) was in the range of 100 to 1000 nM.
With `C=CC(=O)N1CC[C@@H](n2cc(-c3nc(-c4cnnc(C)c4)c4ccsc4c3-c3c(F)cc(F)cc3OC(C)C)cn2)C1` [Compound 391], in test [1] (setting [2]), the “% of modification” value is on record as “A (percent of modification of PIK3CA protein ≥75%)”. In the test on pAKT in BT474 cells (Compounds 10-999), the IC50 is under 100 nM.
As for `C=CC(=O)N1CCC(n2cc(-c3nc(-c4ccc5c(c4)CNC(=O)C5)c4ccsc4c3-c3ccccc3)cn2)CC1` [Compound 75], in test [1] (setting [2]), the “% of modification” value is recorded as “B (50%<percent of modification <75%)”. Besides, in the test with pAKT in BT474 cells (Compounds 10-999), the IC50 is over 3000 nM.
As to `CC#CC(=O)N1CCn2nc(-c3nc(-c4ccc5c(cnn5C)c4)c4ccsc4c3-c3c(F)cc(F)cc3OCCOC)cc2[C@H]1C` [Compound 1227], in test [1] (setting [3]), the “% of modification” value is reported as “B (50%<percent of modification <75%)”. Besides, in the test on pAKT in BT474 cells (Compounds 1000-1279), the IC50 was in the range of 100 to 1000 nM.
`C=CC(=O)N1Cc2cc(-c3nc(-c4cn(C)cn4)c4ccsc4c3-c3c(F)cc(F)cc3OCCO)nn2[C@@H](C)C1` [Compound 819]: the “% of modification” value in test [1] (setting [2]) is listed as “A (percent of modification of PIK3CA protein ≥75%)”. Moreover, in the test with pAKT in BT474 cells (Compounds 10-999), the IC50 is under 100 nM.
As for `C=CC(=O)N1C[C@H](C)n2nc(-c3nc(-c4cnn(C)c4)c4ccsc4c3-c3c(F)cc(F)cc3OCCOC)cc2[C@H]1C` [Compound 583], the “% of modification” value in test [1] (setting [2]) is given as “A (percent of modification of PIK3CA protein ≥75%)”. Further, the IC50 in the test on pAKT in BT474 cells (Compounds 10-999) is under 100 nM.
Regarding `C=CC(=O)N1CCc2nc(-c3nc(N4CCC(N(C)C)CC4)c4ccsc4c3-c3ccc(F)cc3OCCOC)sc2C1` [Compound 175], in test [1] (setting [2]), the “% of modification” value was “A (percent of modification of PIK3CA protein ≥75%)”. Moreover, the IC50 with pAKT in BT474 cells (Compounds 10-999) was in the range of 100 to 1000 nM.
With `C=CC(=O)N1CCn2nc(-c3nc(-c4ccc5c(c4)CCN(C)C5(C)C)c4ccsc4c3-c3c(F)cc(F)cc3OCCO)cc2C1C` (stereo not drawn) [Compound 1181], the “% of modification” value in test [1] (setting [3]) is reported as “A (percent of modification of PIK3CA protein ≥75%)”. In the test with pAKT in BT474 cells (Compounds 1000-1279), the IC50 was under 100 nM.
For `C=CC(=O)N1CCn2nc(-c3nc(-c4cnc5c(c4)CN(C)CC5(F)F)c4ccsc4c3-c3c(F)cc(F)cc3OCCO)cc2C1C` (stereo not drawn) [Compound 1196] the same measures were “A (percent of modification of PIK3CA protein ≥75%)” and under 100 nM.
For the compound `C=CC(=O)N1Cc2cc(-c3nc(-c4ccc5cn(C)nc5c4)c4ccsc4c3-c3c(F)cc(F)cc3OCCOC)nn2[C@@H](C)C1` [Compound 742], the “% of modification” value in test [1] (setting [2]) is recorded as “A (percent of modification of PIK3CA protein ≥75%)”. In the test with pAKT in BT474 cells (Compounds 10-999), the IC50 is under 100 nM.
Turning to `C=CC(=O)N1CCn2nc(-c3nc(-c4ccc5cn(C)nc5c4)c4ccsc4c3-c3c(F)cc(F)cc3OCCO)cc2[C@@H]1C` [Compound 780], in test [1] (setting [2]), the “% of modification” value is recorded as “A (percent of modification of PIK3CA protein ≥75%)”. Besides, the IC50 in the test on pAKT in BT474 cells (Compounds 10-999) was under 100 nM.
On to `C=CC(=O)N1CCc2ncc(-c3nc(-c4ccn(C(F)F)c(=O)c4)c4ccsc4c3-c3c(F)cc(F)cc3OC(C)C)cc2C1` [Compound 359], for which the “% of modification” value in test [1] (setting [2]) is on record as “A (percent of modification of PIK3CA protein ≥75%)”. The IC50 in the test with pAKT in BT474 cells (Compounds 10-999) is under 100 nM.
For `C=CC(=O)N1Cc2cc(-c3nc(-c4cnnc(C)c4)c4ccsc4c3-c3c(F)cc(F)cc3OC[C@@H](C)O)nn2C[C@H]1C` [Compound 743] the same measures were “A (percent of modification of PIK3CA protein ≥75%)” and under 100 nM.
Consider `C=CC(=O)N1CCn2nc(-c3nc(-c4cnc5c(c4)CN(C)CC5)c4ccsc4c3-c3c(F)cc(F)cc3OC)cc2[C@H]1C` (single isomer, unassigned) [Compound 1147], for which, in test [1] (setting [3]), the “% of modification” value is reported as “A (percent of modification of PIK3CA protein ≥75%)”. In the test with pAKT in BT474 cells (Compounds 1000-1279), the IC50 is under 100 nM.
In the case of `C=CC(=O)N1CCn2nc(-c3nc(-c4cnc5c(c4)N(C)C(=O)C5)c4ccsc4c3-c3c(F)cc(F)cc3OCCOC)cc2C1C` (stereo not drawn) [Compound 1058], in test [1] (setting [3]), the “% of modification” value was “A (percent of modification of PIK3CA protein ≥75%)”. Besides, in the test with pAKT in BT474 cells (Compounds 1000-1279), the IC50 was under 100 nM.
With `C=CC(=O)N1Cc2cc(-c3nc(-c4cnn(C)c4)c4ccsc4c3-c3c(F)cc(F)cc3OCCO)nn2[C@@H](C)C1` [Compound 567], the “% of modification” value in test [1] (setting [2]) is “A (percent of modification of PIK3CA protein ≥75%)”. In the test with pAKT in BT474 cells (Compounds 10-999), the IC50 was under 100 nM.
The like results for `C=CC(=O)N1CCn2nc(-c3nc(-c4ccc5c(c4)CN(C)C5=O)c4ccsc4c3-c3c(F)cc(F)cc3OC[C@@H](C)O)cc2[C@H]1C` [Compound 763] were, in that order, “A (percent of modification of PIK3CA protein ≥75%)” and under 100 nM.
For the compound `C=CC(=O)N1CCc2ncc(-c3nc(-c4ccc5c(c4)CS(=O)(=O)C5)c4ccsc4c3-c3ccc(F)cc3OCCOC)cc2C1` [Compound 111], in test [1] (setting [2]), the “% of modification” value is reported as “A (percent of modification of PIK3CA protein ≥75%)”. For the same compound, the IC50 in the test with pAKT in BT474 cells (Compounds 10-999) was under 100 nM.
With `C=CC(=O)N1CCc2ccc(-c3nc(-c4ccc5c(c4)C(=O)NC5)c4ccsc4c3-c3c(F)cc(F)cc3OCCOC)cc2C1` [Compound 1107], the “% of modification” value in test [1] (setting [3]) was “A (percent of modification of PIK3CA protein ≥75%)”. In addition, in the test on pAKT in BT474 cells (Compounds 1000-1279), the IC50 was under 100 nM.
